Our source for the IC50 values is patent US20260176267A1, “PREPARATION OF IMIDAZOPYRIDINE AND IMIDAZOPYRIDAZINE DERIVATIVES AS NOVEL DIACYLGLYCERIDE O-ACYLTRANSFERASE 2 INHIBITORS” (Merck Sharp & Dohme LLC, priority 2022, published 2026).

In this experiment the target is T1, human DGAT2 (hDGAT2) (Homo sapiens, UniProt Q96PD7).
T1 construct: made in house; host or cells: Sf-9 insect cells (baculovirus), membrane fraction
T1 sequence (Q96PD7 1-388): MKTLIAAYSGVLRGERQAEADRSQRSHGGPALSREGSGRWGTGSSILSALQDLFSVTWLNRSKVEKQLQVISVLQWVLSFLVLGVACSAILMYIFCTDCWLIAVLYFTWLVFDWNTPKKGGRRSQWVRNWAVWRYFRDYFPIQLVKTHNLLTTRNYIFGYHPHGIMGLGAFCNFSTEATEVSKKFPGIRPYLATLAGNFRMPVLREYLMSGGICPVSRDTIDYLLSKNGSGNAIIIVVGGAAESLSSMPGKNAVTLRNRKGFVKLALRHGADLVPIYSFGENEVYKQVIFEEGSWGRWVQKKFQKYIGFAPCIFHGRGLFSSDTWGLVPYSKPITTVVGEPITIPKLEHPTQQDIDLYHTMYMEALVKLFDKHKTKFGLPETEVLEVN
Description: DGAT2 Enzymatic Activity Assay. In kind it is biochemical. The conditions noted are these: membrane prep of Sf-9 cells expressing hDGAT2; 13C18-triolein product by LC/MS/MS; 25 μM diolein, 5 μM 13C oleoyl-CoA, rt. A digest of the protocol: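 Membranes from Sf-9 cells expressing untagged human DGAT2 (baculovirus, 48 h) used as enzyme at rt. The product ^13C18-triolein is quantified by LC/MS/MS against a ^13C21-triolein internal standard. Percent inhibition is taken from high and low controls, and IC50 is derived.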

One may read the IC50 as the point on the concentration scale where inhibition reaches its midpoint. The low end stands for greater potency in that assay, the high end for weaker potency in that assay. As to `Cc1c(C(=O)NC2(C)CCS(=O)(=O)CC2)nc2ccc(Oc3ncc(Cl)cc3OCC3(F)CC3)cn12` [Example 81, 6-[[5-chloro-3-[(1-fluorocyclopropyl)methoxy]-2-pyridyl]oxy]-3-methyl-N-(4-methyl-1,1-dioxo-thian-4-yl)imidazo[1,2-a]pyridine-2-carboxamide], the IC50 was determined as 3.5 nM.

For the compound `Cc1c(C(=O)NC2(C)CCS(=O)(=O)CC2)nc2ccc(Oc3nccnc3OCC(F)(F)F)cn12` [Example 82, 3-methyl-N-(4-methyl-1,1-dioxo-thian-4-yl)-6-[3-(2,2,2-trifluoroethoxy)pyrazin-2-yl]oxy-imidazo[1,2-a]pyridine-2-carboxamide], the 50% inhibitory concentration (IC50) turned out to be 9.1 nM.

`CO[C@]1(C(F)(F)F)C[C@H](NC(=O)c2nc3ccc(Oc4ncc(F)cc4OCC(F)F)cn3c2C)C1` [Example 83, 6-[[3-(2,2-difluoroethoxy)-5-fluoro-2-pyridyl]oxy]-N-[3-methoxy-3-(trifluoromethyl)cyclobutyl]-3-methyl-imidazo[1,2-a]pyridine-2-carboxamide] yielded an IC50 of 12 nM. The IC50 values of the last two compounds are within 1.5-fold of each other.

Turning to `Cc1c(C(=O)NC2(C)CS(=O)(=O)C2)nc2ccc(Oc3ncc(Cl)cc3OCC(F)(F)F)cn12` [Example 84, 6-[[5-chloro-3-(2,2,2-trifluoroethoxy)-2-pyridyl]oxy]-3-methyl-N-(3-methyl-1,1-dioxo-thietan-3-yl)imidazo[1,2-a]pyridine-2-carboxamide], the IC50 was 6.2 nM.

In the case of `Cc1c(C(=O)NC2(C)CN(C(=O)C(F)(F)F)C2)nc2ccc(Oc3ncc(F)cc3OCC(F)F)cn12` [Example 85, 6-[[3-(2,2-difluoroethoxy)-5-fluoro-2-pyridyl]oxy]-3-methyl-N-[3-methyl-1-(2,2,2-trifluoroacetyl)azetidin-3-yl]imidazo[1,2-a]pyridine-2-carboxamide], the IC50 came to 1.6 nM.

In the case of `Cc1c(C(=O)NC2(C)CCC(F)(F)CC2)nc2ccc(Oc3ncccc3OCC(F)F)cn12` [Example 86, 6-[[3-(2,2-difluoroethoxy)-2-pyridyl]oxy]-N-(4,4-difluoro-1-methyl-cyclohexyl)-3-methyl-imidazo[1,2-a]pyridine-2-carboxamide], half-maximal inhibition (IC50) required 6.8 nM.

Consider `Cc1c(C(=O)NC2(C)CCS(=O)(=O)CC2)nc2ccc(Oc3ncccc3OCC(F)(F)F)cn12` [Example 87, 3-methyl-N-(4-methyl-1,1-dioxo-thian-4-yl)-6-[[3-(2,2,2-trifluoroethoxy)-2-pyridyl]oxy]imidazo[1,2-a]pyridine-2-carboxamide], for which the 50% inhibitory concentration (IC50) stood at 17 nM.

The compound `Cc1c(C(=O)NC2(C)CCS(=O)(=O)CC2)nc2ccc(Oc3ncc(F)cc3OCC(F)(F)F)cn12` [Example 88, 6-[[5-fluoro-3-(2,2,2-trifluoroethoxy)-2-pyridyl]oxy]-3-methyl-N-(4-methyl-1,1-dioxo-thian-4-yl)imidazo[1,2-a]pyridine-2-carboxamide] yielded a concentration for half-maximal inhibition (IC50) of 8.3 nM. This IC50 lies about 2-fold lower than the previous one.

As for `Cc1c(C(=O)NC2(C)CN(C(=O)C(F)(F)F)C2)nc2ccc(Oc3ncc(F)cc3OCC(F)(F)F)cn12` [Example 89, 6-[[5-fluoro-3-(2,2,2-trifluoroethoxy)-2-pyridyl]oxy]-3-methyl-N-[3-methyl-1-(2,2,2-trifluoroacetyl)azetidin-3-yl]imidazo[1,2-a]pyridine-2-carboxamide], half-maximal inhibition (IC50) required 20 nM.

`Cc1c(C(=O)NC2(C)CS(=O)(=O)C2)nc2ccc(Oc3ncccc3OCC(F)F)cn12` [Example 90, 6-[[3-(2,2-difluoroethoxy)-2-pyridyl]oxy]-3-methyl-N-(3-methyl-1,1-dioxo-thietan-3-yl)imidazo[1,2-a]pyridine-2-carboxamide] gave a 50% inhibitory concentration (IC50) of 5 nM.

Compound `Cc1c(C(=O)NC2(C(C)C)CCS(=O)(=O)CC2)nc2ccc(Oc3ncc(F)cc3OCC(F)(F)F)cn12` [Example 91, 6-[[5-fluoro-3-(2,2,2-trifluoroethoxy)-2-pyridyl]oxy]-N-(4-isopropyl-1,1-dioxo-thian-4-yl)-3-methyl-imidazo[1,2-a]pyridine-2-carboxamide] returned an IC50 of 22 nM.

In turn, `Cc1c(C(=O)NC2(C)CCS(=O)(=O)CC2)nc2ccc(Oc3ncc(C(F)(F)F)cc3OCC(F)(F)F)cn12` [Example 92, 3-methyl-N-(4-methyl-1,1-dioxo-thian-4-yl)-6-[[3-(2,2,2-trifluoroethoxy)-5-(trifluoromethyl)-2-pyridyl]oxy]imidazo[1,2-a]pyridine-2-carboxamide] had an IC50 of 17 nM. This IC50 and that of the compound before are within 1.5-fold of each other.

Compound `Cc1c(C(=O)NC2CCS(=O)(=O)C(C)(C)C2)nc2ccc(Oc3ncc(F)cc3OCC(F)F)cn12` (stereo not drawn) [Example 93, 6-[[3-(2,2-difluoroethoxy)-5-fluoro-2-pyridyl]oxy]-N-(2,2-dimethyl-1,1-dioxo-thian-4-yl)-3-methyl-imidazo[1,2-a]pyridine-2-carboxamide] had a 50% inhibitory concentration (IC50) of 2.9 nM.

Compound `Cc1c(C(=O)NC2(C)CCS(=O)(=O)CC2)nc2ccc(Oc3ncc(F)cc3OCC(C)(F)F)cn12` [Example 94, 6-[[3-(2,2-difluoropropoxy)-5-fluoro-2-pyridyl]oxy]-3-methyl-N-(4-methyl-1,1-dioxo-thian-4-yl)imidazo[1,2-a]pyridine-2-carboxamide] yielded an IC50 of 12 nM. This IC50 lies about 4.1-fold higher than the previous one.

`CCOc1cc(C(F)(F)F)cnc1Oc1ccc2nc(C(=O)NC3(C)CCS(=O)(=O)CC3)c(C)n2c1` [Example 95, 6-[[3-ethoxy-5-(trifluoromethyl)-2-pyridyl]oxy]-3-methyl-N-(4-methyl-1,1-dioxo-thian-4-yl)imidazo[1,2-a]pyridine-2-carboxamide] displayed an IC50 of 3 nM.

`Cc1cnc(Oc2ccc3nc(C(=O)NC4(C)CS(=O)(=O)C4)c(C)n3c2)c(OCC(F)(F)F)n1` [Example 96]: it took 5.7 nM to reach half-maximal inhibition (IC50). Against the preceding compound, the IC50 is about 1.9-fold higher.

As for `Cc1c(C(=O)NC2CC(C(F)(F)F)C2)nc2ccc(Oc3ncc(F)cc3OCC(F)F)cn12` (stereo not drawn) [Example 97, 6-[[3-(2,2-difluoroethoxy)-5-fluoro-2-pyridyl]oxy]-3-methyl-N-[3-(trifluoromethyl)cyclobutyl] imidazo[1,2-a]pyridine-2-carboxamide], the 50% inhibitory concentration (IC50) is 4 nM. This IC50 and that of the compound before are within 1.5-fold of each other.

As for `Cc1c(C(=O)NC23CC(F)(C2)C3)nc2ccc(Oc3ncc(F)cc3OCC(F)F)cn12` [Example 99], the concentration for half-maximal inhibition (IC50) is 56 nM.

In the case of `Cc1c(C(=O)NC2(C)CCS(=O)(=O)C(C)(C)C2)nc2ccc(Oc3ncc(Cl)cc3OCC(F)F)cn12` (stereo not drawn) [Example 100, 6-[[5-chloro-3-(2,2-difluoroethoxy)-2-pyridyl]oxy]-3-methyl-N-(2,2,4-trimethyl-1,1-dioxo-thian-4-yl)imidazo[1,2-a]pyridine-2-carboxamide], the 50% inhibitory concentration (IC50) came to 114 nM.

`Cc1c(C(=O)N[C@]2(C)CCS(=O)(=O)C2)nc2ccc(Oc3ncc(F)cc3OCC(F)(F)F)cn12` [Example 101] had a half-maximal inhibitory concentration (IC50) of 88 nM.

With `Cc1c(C(=O)NC2(C)CCN(C(=O)C(F)(F)F)CC2)nc2ccc(Oc3ncc(F)cc3OCC(F)(F)F)cn12` [Example 102, 6-[[5-fluoro-3-(2,2,2-trifluoroethoxy)-2-pyridyl]oxy]-3-methyl-N-[4-methyl-1-(2,2,2-trifluoroacetyl)-4-piperidyl]imidazo[1,2-a]pyridine-2-carboxamide], half-maximal inhibition (IC50) was put at 128 nM. This IC50 and that of the compound before are within 1.5-fold of each other.

Compound `Cc1c(C(=O)NC2(C)CS(=O)(=O)C2)nc2ccc(Oc3ncc(C(F)(F)F)nc3OCC(F)(F)F)cn12` [Example 103, 3-methyl-N-(3-methyl-1,1-dioxo-thietan-3-yl)-6-[3-(2,2,2-trifluoroethoxy)-5-(trifluoromethyl)pyrazin-2-yl]oxy-imidazo[1,2-a]pyridine-2-carboxamide] returned an IC50 of 71 nM.

Turning to `Cc1c(C(=O)NC2(C)CCS(=O)(=O)CC2)nc2ccc(Oc3ncc(F)cc3OCC(F)(F)C(F)F)cn12` [Example 104, 6-[[5-fluoro-3-(2,2,3,3-tetrafluoropropoxy)-2-pyridyl]oxy]-3-methyl-N-(4-methyl-1,1-dioxo-thian-4-yl)imidazo[1,2-a]pyridine-2-carboxamide], the half-maximal inhibitory concentration (IC50) is 342 nM.

`Cc1c(C(=O)NC2CCS(=O)(=O)C(C)(C)C2)nc2ccc(Oc3ncc(F)cc3OCC(F)(F)F)cn12` (stereo not drawn) [Example 105, N-(2,2-dimethyl-1,1-dioxo-thian-4-yl)-6-[[5-fluoro-3-(2,2,2-trifluoroethoxy)-2-pyridyl]oxy]-3-methyl-imidazo[1,2-a]pyridine-2-carboxamide] registered a half-maximal inhibitory concentration (IC50) of 193 nM. This IC50 lies about 1.8-fold lower than the previous one.

Regarding `CCC1(NC(=O)c2nc3ccc(Oc4nccnc4OCC(F)(F)F)cn3c2C)CCS(=O)(=O)CC1` [Example 106, N-(4-ethyl-1,1-dioxo-thian-4-yl)-3-methyl-6-[3-(2,2,2-trifluoroethoxy)pyrazin-2-yl]oxy-imidazo[1,2-a]pyridine-2-carboxamide], half-maximal inhibition (IC50) required 638 nM.

As for `Cc1ccnc(Oc2ccc3nc(C(=O)NC4(C)CCS(=O)(=O)CC4)c(C)n3c2)c1OCC(F)(F)F` [Example 107, 3-methyl-N-(4-methyl-1,1-dioxo-thian-4-yl)-6-[[4-methyl-3-(2,2,2-trifluoroethoxy)-2-pyridyl]oxy]imidazo[1,2-a]pyridine-2-carboxamide], the IC50 was 634 nM.

The compound `Cc1cnc(OCC(F)(F)F)c(Oc2ccc3nc(C(=O)NC4(C)CCS(=O)(=O)CC4)c(C)n3c2)n1` [Example 108, 3-methyl-N-(4-methyl-1,1-dioxo-thian-4-yl)-6-[6-methyl-3-(2,2,2-trifluoroethoxy)pyrazin-2-yl]oxy-imidazo[1,2-a]pyridine-2-carboxamide] showed an IC50 of 131 nM. Against the preceding compound, the IC50 is about 4.8-fold lower.
